# According to US20250082700A1, “METHODS AND COMPOSITIONS OF TREATING BIOLFILM-RELATED DISEASES” (UNIVERSITY OF ROCHESTER, priority 2022, published 2025):
# Ends that are not written are not given here.
# Assays:
# [1] = tested on: C. albicans from 1 representative S-ECC child; assay: Inhibition of C. albicans clinical isolate by plantaricin (MIC); type: cell-based, Candida albicans; details: clear culture plated, additional 48 hours
# Method: (§1) Bacteriocins, antimicrobial molecules, produced by L. plantarum are known as plantaricins. Peptide plantaricin-149 (acetate) powers (Creative Peptides, Shirley, USA) were dissolved in ddH2O to prepare plantaricin solutions. S. mutans (3.6×10^3 CFU/ml) and C. albicans (3.1×10^1 CFU/ml) from 1 representative S-ECC child were selected and treated with the plantaricin with a range of concentration (0-400 μg/ml). The mixtures of plantaricin with S. mutans or C. albicans were grown for 24 hours in TSBYE with 1% glucose in 96-well plates. Clear culture after 24 hours' incubation indicated no growth of microorganisms. Therefore, the minimal inhibition concentration (MIC) of plantaricin-149 was defined as the lowest concentration that inhibited the growth of S. mutans and C. albicans.
# (§2) S. mutans (3.6×10^3 CFU/ml) and C. albicans (3.1×10^1 CFU/ml) were treated by the plantaricin ranging from 0-400 ng/ml respectively, and grew for 24 h in 1% glucose condition. The MIC of plantaricin was 400 ng/ml for S. mutans and 200 ng/ml for C. albicans. The clear culture was plated and incubated for additional 48 hours.
# [2] = tested on: S. mutans from 1 representative S-ECC child; assay: Inhibition of S. mutans clinical isolate by plantaricin (MIC); type: cell-based, Streptococcus mutans; details: clear culture plated, additional 48 hours
# Method: as §1, §2
sequence,measurement,setting,value
YSLQMGATAIKQVKKLFKKKGG [plantaricin],nature of inhibitory effect on C. albicans,[1],fungistatic
same,nature of inhibitory effect on S. mutans,[2],bacteriostatic
